{"source": "patent US4997852A", "about": "“Method and composition for achieving cancer chemopreventive and chemotherapeutic activity” (priority 1989, dated 1991)", "key": {"beta-glucuronidase": {"system": "beta-glucuronidase", "conditions": "in cells, blood, cited from earlier work"}, "MCF-7 cells [1]": {"system": "MCF-7 cells", "assay": "inhibition of MCF-7 breast cancer cell growth in culture (Example III)", "type": "cell-based, human", "conditions": "for inhibition at 0.01 µM / inhibition at 0.1 µM / inhibition at 1 µM / inhibition at 10 µM: Homo sapiens, MCF7, read-out: inhibition of cell growth", "protocol": "The MCF-7 cell line was derived from a hormone-dependent metastatic breast cancer. It has retained several characteristics of differentiated mammary epithelium, Soule et al., J. Natl. Cancer Inst. 51:1409-1413 (1973), and the cells contain estrogen receptors. The MCF-7 cell line used was obtained from the OSU Cell Culture Service laboratory, but originated from the Michigan Cancer Foundation, Detroit, Mich. The MCF-7 cells were seeded at 1×10^3 cells/cm^2 in 35 mm wells containing MEM (Earle base medium) supplemented with MEM non-essential amino acids (1.0 mM), L-glutamic acid (2.0 mM), penicillin and streptomycin (100 ug/ml) and fetal calf serum (10%) as described in Ueda et al., Cancer 46:2203-2206, (1980). The cells are maintained at 37° C. in a humidified atmosphere of 5% CO2 /20% O2 with the growth medium replaced twice a week. The retinoids were dissolved in ethanol and added to the culture medium starting 24 hrs. after seeding. […] Glucarate concentrations varied from 10^-5 to 10^-8 M. Cell counts were done with a Coulter counter and viability of the cells was determined by the trypan blue exclusion method and also by their ability to resume growth after removal of inhibitory agents. Cytotoxicity was evaluated by exposing the MCF-7 cells to equimolar concentrations of the agents and examining viability after 6 days of treatment. All experiments were done in triplicate.\nIn this experiment series glucarate as the soluble potassium salt and 13-cis-RA were evaluated, alone and in combination, for their ability to inhibit the growth of MCF-7 breast cancer cells in culture.\nThe log transformed dose refers to the level in μM added to the medium as was varied from […] (0.01) μM to 10^-1 μM. The retinoid vehicle, ethanol, was added to all cultures and all values have been corrected for its slight inhibitory effect (7%)."}, "[2]": {"system": "DMBA-induced mammary tumors", "assay": "chemoprevention of DMBA-induced rat mammary carcinogenesis (Example II)", "type": "in vivo, female Sprague Dawley rats", "protocol": "(§1) The 13-cis-RA was dissolved in a vehicle consisting of ethanol:tricaprylin:1:4 (v/v) and 4% w/v α-tochopherol. The mixture was added to the meal at the rate of 25 ml/2 kg then stored in the dark at -20° C. […] The same amount of vehicle was also added to the control diet and to the diets containing glucarate. Beginning 5 weeks post DMBA treatment, the rats were examined (palpated) twice every week for mammary tumors. They were also weighed once weekly throughout the 20 week period of the experiment."}, "[3]": {"assay": "weight gain of rats on CGT and HPR diets (FIG. 4)", "type": "in vivo, female Sprague Dawley rats", "conditions": "prolonged feeding of diets containing CGT and HPR", "description": "(§2) They were maintained on the diets for approximately 4 mos., and were examined (palpated) for mammary tumors weekly. […] The retinoid (HPR) was first dissolved in 25 ml of a vehicle consisting of ethanol-tricaprylin-6% α-tocopherol, then thoroughly mixed with powdered rat chow."}, "rat mammary tumors": {"system": "rat mammary tumors", "assay": "rat mammary tumor chemoprevention and shrinkage, effective dietary levels", "type": "in vivo", "conditions": "for dietary level when used individually: alone"}, "[4]": {"conditions": "CGT-supplemented diet vs normal chow diet; cited from earlier work"}, "[5]": {"system": "7,12-dimethylbenz(a)anthracene-induced mammary tumors", "assay": "DMBA-induced mammary tumor formation in female Sprague Dawley rats (Example I)", "type": "in vivo", "conditions": "1.0% CGT", "description": "as §2\nProtocol: 50 d old female S.D. rats received a single dose 75 mg/kg of\nwith DMBA, then continued throughout the experiment."}, "[6]": {"system": "chemical induction of tumors in rodent skin, mammary glands, lung and liver", "conditions": "cited from earlier work"}, "[7]": {"system": "7,12-dimethylbenz(a)anthracene-induced mammary tumorigenesis", "conditions": "cited from earlier work"}, "[8]": {"assay": "weights of rats on diets (Example II, Table III)", "conditions": "CGT 2%, RA 1.0 mmol/kg diet", "protocol": "as §1"}, "MCF-7 cells [9]": {"system": "MCF-7 cells", "assay": "growth of MCF-7 cells in GL/HPR-containing media (Table II)", "type": "cell-based, human", "conditions": "5 days", "excerpt": "The values shown are the mean +/- ISE for three experiments counted in triplicates. The numbers in parenthesis indicate the number of free floating (mostly non viable) cells in the media."}, "[10]": {"conditions": "GL itself; cited from earlier work"}, "MCF-7 cells [11]": {"system": "MCF-7 cells", "assay": "growth of human breast cancer cell line MCF-7, 7 days", "type": "cell-based", "conditions": "MCF7, 168 h, 0.1 μM HPR, within 7 days, read-out: growth, % of the control", "protocol": "When higher doses (2 mmol/kg diet) of HPR were used, growth arrest was followed within 5 to 10 days by 30% regression of the DMBA-induced mammary tumors. Also, HPR (0.1μM) inhibited the […] growth of the human breast cancer cell line (MCF-7) to 50% of the control within 7 days."}}, "note": "Like-named read-outs stand apart in the source and are kept apart here."}
{"compound": "2,4-di-0-acetyl-D-glucaro-1-lactone", "values": [{"measurement": "inhibition of beta-glucuronidase", "setting": "beta-glucuronidase; urine, intestine and liver", "result": "effective as inhibitors of beta-glucuronidase"}]}
{"compound": "CC1=C(/C=C/C(C)=C/C=C/C(C)=C\\C(=O)O)C(C)(C)CCC1", "note": "[13-cis-RA, 13-cis-retinoic acid, reference compound]", "values": [{"measurement": "inhibition at 0.01 µM", "setting": "MCF-7 cells [1]", "result": 2, "unit": "%"}, {"measurement": "inhibition at 0.1 µM", "setting": "MCF-7 cells [1]", "result": 9.2, "unit": "%"}, {"measurement": "inhibition at 1 µM", "setting": "MCF-7 cells [1]", "result": 12, "unit": "%"}, {"measurement": "inhibition at 10 µM", "setting": "MCF-7 cells [1]", "result": 52.2, "unit": "%"}, {"measurement": "inhibitory activity of retinoid alone", "setting": "MCF-7 cells [1]; concentrations above 1.0 μM", "result": "significant inhibitory activity"}, {"measurement": "effect on tumor incidence over controls", "setting": "[2]; 1.0 mmol/kg diet 13-cis-RA (group III)", "result": "slight, but insignificant, enhancement of tumor incidence"}]}
{"compound": "O=C([O-])[C@@H](O)[C@@H](O)[C@H](O)[C@@H](O)C(=O)[O-].[Ca+2]", "note": "[CGT, calcium glucarate]", "values": [{"measurement": "weight gain of rats", "setting": "[3]", "result": "did not affect weight gain"}, {"measurement": "dietary level when used individually", "setting": "rat mammary tumors", "result": 128, "unit": "mmol/kg"}, {"measurement": "food quantity and weight gain", "setting": "[4]", "result": "identical to those on the normal chow diet"}, {"measurement": "inhibition of tumors/rat", "setting": "[5]", "result": 9, "unit": "%"}, {"measurement": "inhibition of chemical induction of tumors", "setting": "[6]; dietary, rodent skin, mammary glands, lung, liver", "result": "50-70%"}, {"measurement": "tumor induction, % of that in controls", "setting": "[7]; 4% CGT diet, by 28 weeks", "result": 30, "unit": "%"}, {"measurement": "tumor regression", "setting": "[7]; chow diet supplemented with CGT", "result": "some tumors on the chow diet supplemented with CGT underwent regression"}, {"measurement": "Weights of rats on diets", "setting": "[8]; 0 weeks on diet, control 177.2 +/-10.9", "result": "182.2 +/-8.8 gm"}, {"measurement": "Weights of rats on diets", "setting": "[8]; 5 weeks on diet, control 218.3 +/-16.9", "result": "224.8 +/-11.6 gm"}, {"measurement": "Weights of rats on diets", "setting": "[8]; 17 weeks on diet, control 247.0 +/-32.2", "result": "250.3 +/-14.2 gm"}, {"measurement": "effect on tumor incidence compared to control group", "setting": "[2]; 2% CGT, 64 mmol/kg diet (group II)", "result": "did not show any effect on tumor incidence"}, {"measurement": "inhibition of beta-glucuronidase", "setting": "beta-glucuronidase; urine, intestine and liver", "result": "effective as inhibitors of beta-glucuronidase"}]}
{"compound": "O=C(O)[C@@H](O)[C@H]1OC(=O)[C@H](O)[C@H]1O", "note": "[GL, D-glucaro-1,4-lactone]", "values": [{"measurement": "No. of viable cells", "setting": "MCF-7 cells [9]; GL 10^-4 M, control 60400 ± 2147", "result": "49480 ± 3160"}, {"measurement": "activity at 1000 µM", "setting": "MCF-7 cells [9]; Homo sapiens, MCF7, 120 h, GL 10^-3 M, parenthesised, control 11, read-out: free floating cells, % of control", "result": 7, "unit": "%"}, {"measurement": "viability at 1000 µM", "setting": "MCF-7 cells [9]; Homo sapiens, MCF7, 120 h, GL 10^-3 M, read-out: viable cells, % of control", "result": "54 ± 3", "unit": "%"}, {"measurement": "activity at 100 µM", "setting": "MCF-7 cells [9]; Homo sapiens, MCF7, 120 h, GL 10^-4 M, parenthesised, control 11, read-out: free floating cells, % of control", "result": 6, "unit": "%"}, {"measurement": "viability at 100 µM", "setting": "MCF-7 cells [9]; Homo sapiens, MCF7, 120 h, GL 10^-4 M, read-out: viable cells, % of control", "result": "82 ± 5", "unit": "%"}, {"measurement": "absorption and clearance from the body", "setting": "[10]", "result": "too rapidly absorbed and cleared from the body"}, {"measurement": "inhibition of beta-glucuronidase", "setting": "beta-glucuronidase; urine and intestine, 4-lactone", "result": "potent beta-glucuronidase inhibitor"}, {"measurement": "inhibition of beta-glucuronidase", "setting": "beta-glucuronidase; urine and intestine", "result": "potent inhibitor of beta-glucuronidase"}]}
{"compound": "O=C(O)[C@@H](O)[C@@H](O)[C@H](O)[C@@H](O)C(=O)[O-].[K+]", "note": "[GT, potassium hydrogen glucarate]", "values": [{"measurement": "increase in inhibition of growth as a function of glucarate concentration", "setting": "MCF-7 cells [1]; 1000-fold range of glucarate, at 13-cis-RA 0.0, 0.1 and 1.0 μM", "result": "7-25%"}, {"measurement": "inhibition at 0.01 µM", "setting": "MCF-7 cells [1]", "result": 0, "unit": "%"}, {"measurement": "inhibition at 0.1 µM", "setting": "MCF-7 cells [1]", "result": 6, "unit": "%"}, {"measurement": "inhibition at 1 µM", "setting": "MCF-7 cells [1]", "result": 6, "unit": "%"}, {"measurement": "inhibition at 10 µM", "setting": "MCF-7 cells [1]", "result": 11, "unit": "%"}, {"measurement": "inhibition of beta-glucuronidase", "setting": "beta-glucuronidase; urine, intestine and liver", "result": "effective as inhibitors of beta-glucuronidase"}]}
{"compound": "CC1=C(/C=C/C(C)=C/C=C/C(C)=C/C(=O)Nc2ccc(O)cc2)C(C)(C)CCC1", "note": "[HPR, N-(4-hydroxyphenyl)retinamide, reference compound]", "values": [{"measurement": "weight gain of rats", "setting": "[3]", "result": "did not affect weight gain"}, {"measurement": "dietary level when used individually", "setting": "rat mammary tumors", "result": 2.00, "unit": "mmol/kg"}, {"measurement": "minimum dosage consistent with maximum inhibition of carcinogenesis", "setting": "rat mammary tumors; used alone", "result": "1.0 to 1.5", "unit": "mmol/kg"}, {"measurement": "activity at 0.1 µM", "setting": "MCF-7 cells [11]", "result": 50, "unit": "%"}, {"measurement": "activity at 0.05 µM", "setting": "MCF-7 cells [9]; Homo sapiens, MCF7, 120 h, HPR 5 × 10^-8 M, parenthesised, control 11, read-out: free floating cells, % of control", "result": 7, "unit": "%"}, {"measurement": "viability at 0.05 µM", "setting": "MCF-7 cells [9]; Homo sapiens, MCF7, 120 h, HPR 5 × 10^-8 M, read-out: viable cells, % of control", "result": "56 ± 4", "unit": "%"}]}
{"compound": "O=C(O)[C@H](O)[C@@H](O)[C@H](O)[C@H](O)CO", "note": "[calcium gluconate, reference compound]", "values": [{"measurement": "effect on tumor induction", "setting": "[6]; equimolar calcium", "result": "no effect"}]}
